In PMC8909834, “An Orally Bioavailable and Highly Efficacious Inhibitor of CDK9/FLT3 for the Treatment of Acute Myeloid Leukemia” (Cancers, 2022):
Where two headings read alike, the source gives them in different places.

Assays:
[1] = molecular target: T1, GLK (Homo sapiens, UniProt Q8IVH8); assay: Ki determination for kinases with greater than 90% inhibition (Reaction Biology); format: biochemical; conditions: calculated from IC50 using the Cheng-Prusoff equation
T1 construct: purchased Reaction Biology Corporation (contract assay)
Experimental: (§1) Kinase assay. The ADP Glo^TM kinase assay (Promega, Madison, WI, USA) was used to assess the inhibition by CDDD11-8 of CDKs 1, 2, 4, 6, 7, and 9, as well as the mutant isoforms of FLT3. The assays were performed in accord with the manufacturer’s protocol (Promega) as described previously. Briefly, serial three-fold dilutions of CDDD11-8 were prepared in 100% DMSO from a 2 mM stock solution, followed by 1:40 dilution into Milli-Q water. Subsequently, 1 µL of each sample was incubated with 4 µL of kinase mixture containing a particular CDK enzyme and its substrate, standard kinase buffer [3 mM MgCl2, 50 mM HEPES-NaOH pH 7.5, 3 mM MnCl2, 3 µM Na-orthovanadate, 1 mM dithiothreitol (DTT)], kinase dilution buffer (containing 0.25 mg/mL PEG20,000, 50 mM HEPES-NaOH pH 7.5, 1 mM DTT), and ATP at 37 °C for 30 to 40 min. The final reaction mixture contained 0.5% DMSO in all samples, and the applied kinase concentrations were 1, 1, 10, 40, 20, and 50 nM for CDK1, 2, 4, 6, 7, and 9, respectively. The reaction was stopped by adding ADP-Glo reagent and the mixture was incubated further in the dark at room temperature for 40 min. As a final step, kinase detection reagent was added to each mixture and incubated at room temperature for 30 to 60 min. Luminescence was read using an EnVision® multilabel plate reader (PerkinElmer, Beaconsfield, UK), and half-maximum inhibitory concentrations (IC50) were calculated using a non-linear regression model with a variable slope, plotting log (inhibitor concentration) vs. response using the following formula: Ar%=Bottom+Top−Bottom/1+Inhibitor Concentration/IC50^HillSlope where the relative activity Ar (%) is the signal relative to the controls, IC50 is the half maximum concentration, Hillslope is the steepness of the dose-response curve, Top and Bottom are plateaus reflecting the maximum and minimum in responses on the Y-axis (GraphPad Prism version 7, San Diego, CA, USA). Ki values were calculated from the IC50 using the Cheng−Prusoff equation [32]. Extensive specificity assessment was carried out by Reaction Biology Corporation (Malvern, PA, USA) with 369 kinases using 1 µM CDDD11-8 concentration in a Kinase Hotspot radiolabel assay (for experimental details, please see (Reaction Biology https://www.reactionbiology.com/). Subsequently, Ki values were determined for kinases with greater than 90% inhibition.

[2] = molecular target: T2, MST1 (Homo sapiens, UniProt Q13043); assay: as above; format: biochemical; conditions: calculated from IC50 using the Cheng-Prusoff equation
T2 construct: purchased Reaction Biology Corporation (contract assay)
Experimental: as §1

[3] = molecular target: T3, TRKC (Homo sapiens, UniProt Q16288); assay: as above; format: biochemical; conditions: calculated from IC50 using the Cheng-Prusoff equation
T3 construct: purchased Reaction Biology Corporation (contract assay)
Experimental: as §1

[4] = molecular target: T4, NUAK1 (Homo sapiens, UniProt O60285); assay: as above; format: biochemical; conditions: calculated from IC50 using the Cheng-Prusoff equation
T4 construct: purchased Reaction Biology Corporation (contract assay)
T4 sequence (O60285 whole entry): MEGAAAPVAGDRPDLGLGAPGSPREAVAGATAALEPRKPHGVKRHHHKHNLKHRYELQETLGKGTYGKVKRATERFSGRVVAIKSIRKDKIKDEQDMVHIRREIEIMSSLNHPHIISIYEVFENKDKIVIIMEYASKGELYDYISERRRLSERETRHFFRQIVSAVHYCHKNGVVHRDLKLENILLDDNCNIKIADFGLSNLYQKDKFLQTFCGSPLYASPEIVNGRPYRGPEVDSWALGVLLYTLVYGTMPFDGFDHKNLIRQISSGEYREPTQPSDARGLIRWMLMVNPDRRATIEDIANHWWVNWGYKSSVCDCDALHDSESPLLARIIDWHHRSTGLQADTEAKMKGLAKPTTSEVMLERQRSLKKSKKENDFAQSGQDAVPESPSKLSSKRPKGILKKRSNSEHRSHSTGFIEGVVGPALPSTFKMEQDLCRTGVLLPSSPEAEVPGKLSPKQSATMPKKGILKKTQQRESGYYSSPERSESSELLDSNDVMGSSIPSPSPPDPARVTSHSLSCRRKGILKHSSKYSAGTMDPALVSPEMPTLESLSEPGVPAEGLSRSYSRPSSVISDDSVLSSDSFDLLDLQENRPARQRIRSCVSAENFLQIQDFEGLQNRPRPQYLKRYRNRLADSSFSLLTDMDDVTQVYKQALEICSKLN
Experimental: as §1

[5] = molecular target: T5, TNIK (Homo sapiens, UniProt Q9UKE5); assay: as above; format: biochemical; conditions: calculated from IC50 using the Cheng-Prusoff equation
T5 construct: purchased Reaction Biology Corporation (Kinase HotSpot)
T5 sequence (Q9UKE5 whole entry): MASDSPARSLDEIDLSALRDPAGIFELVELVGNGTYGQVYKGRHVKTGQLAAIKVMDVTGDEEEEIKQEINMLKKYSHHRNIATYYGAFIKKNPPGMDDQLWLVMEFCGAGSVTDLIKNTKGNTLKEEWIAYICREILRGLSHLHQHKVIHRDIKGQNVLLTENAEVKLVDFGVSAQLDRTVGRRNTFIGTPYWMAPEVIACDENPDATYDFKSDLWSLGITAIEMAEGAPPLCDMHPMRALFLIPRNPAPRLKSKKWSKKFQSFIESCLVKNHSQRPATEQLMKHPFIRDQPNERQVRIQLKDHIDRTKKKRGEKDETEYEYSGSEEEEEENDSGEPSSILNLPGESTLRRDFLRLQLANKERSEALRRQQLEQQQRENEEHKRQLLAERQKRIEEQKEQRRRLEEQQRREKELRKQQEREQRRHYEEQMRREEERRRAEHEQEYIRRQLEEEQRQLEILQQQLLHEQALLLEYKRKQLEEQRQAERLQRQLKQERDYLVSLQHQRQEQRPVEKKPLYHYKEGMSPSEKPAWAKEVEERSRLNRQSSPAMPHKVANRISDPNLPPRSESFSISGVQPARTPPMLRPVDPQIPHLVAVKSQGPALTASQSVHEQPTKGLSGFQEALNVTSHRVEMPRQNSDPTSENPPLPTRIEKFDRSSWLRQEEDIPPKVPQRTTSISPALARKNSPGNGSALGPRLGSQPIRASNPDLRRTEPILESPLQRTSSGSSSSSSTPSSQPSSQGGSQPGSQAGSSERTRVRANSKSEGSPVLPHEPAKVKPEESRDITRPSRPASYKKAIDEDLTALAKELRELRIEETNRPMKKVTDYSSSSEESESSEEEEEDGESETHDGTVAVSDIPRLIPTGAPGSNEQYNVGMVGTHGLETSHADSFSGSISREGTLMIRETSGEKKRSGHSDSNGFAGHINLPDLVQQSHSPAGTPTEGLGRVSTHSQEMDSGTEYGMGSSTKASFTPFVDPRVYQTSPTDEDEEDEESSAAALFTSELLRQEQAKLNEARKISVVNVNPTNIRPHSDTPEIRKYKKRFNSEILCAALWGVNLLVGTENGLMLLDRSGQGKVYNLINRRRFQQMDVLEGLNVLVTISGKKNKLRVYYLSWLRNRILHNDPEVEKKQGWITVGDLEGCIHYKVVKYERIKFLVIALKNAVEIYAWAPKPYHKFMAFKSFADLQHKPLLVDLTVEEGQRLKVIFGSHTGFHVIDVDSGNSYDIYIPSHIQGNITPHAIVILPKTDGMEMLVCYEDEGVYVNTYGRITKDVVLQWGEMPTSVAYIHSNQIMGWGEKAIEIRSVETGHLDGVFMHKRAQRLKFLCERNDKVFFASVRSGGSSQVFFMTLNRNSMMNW
Experimental: as §1

[6] = molecular target: T6, MINK (Homo sapiens, UniProt Q8N4C8); assay: as above; format: biochemical; conditions: calculated from IC50 using the Cheng-Prusoff equation
T6 construct: purchased Reaction Biology Corporation (contract assay)
T6 sequence (Q8N4C8 whole entry): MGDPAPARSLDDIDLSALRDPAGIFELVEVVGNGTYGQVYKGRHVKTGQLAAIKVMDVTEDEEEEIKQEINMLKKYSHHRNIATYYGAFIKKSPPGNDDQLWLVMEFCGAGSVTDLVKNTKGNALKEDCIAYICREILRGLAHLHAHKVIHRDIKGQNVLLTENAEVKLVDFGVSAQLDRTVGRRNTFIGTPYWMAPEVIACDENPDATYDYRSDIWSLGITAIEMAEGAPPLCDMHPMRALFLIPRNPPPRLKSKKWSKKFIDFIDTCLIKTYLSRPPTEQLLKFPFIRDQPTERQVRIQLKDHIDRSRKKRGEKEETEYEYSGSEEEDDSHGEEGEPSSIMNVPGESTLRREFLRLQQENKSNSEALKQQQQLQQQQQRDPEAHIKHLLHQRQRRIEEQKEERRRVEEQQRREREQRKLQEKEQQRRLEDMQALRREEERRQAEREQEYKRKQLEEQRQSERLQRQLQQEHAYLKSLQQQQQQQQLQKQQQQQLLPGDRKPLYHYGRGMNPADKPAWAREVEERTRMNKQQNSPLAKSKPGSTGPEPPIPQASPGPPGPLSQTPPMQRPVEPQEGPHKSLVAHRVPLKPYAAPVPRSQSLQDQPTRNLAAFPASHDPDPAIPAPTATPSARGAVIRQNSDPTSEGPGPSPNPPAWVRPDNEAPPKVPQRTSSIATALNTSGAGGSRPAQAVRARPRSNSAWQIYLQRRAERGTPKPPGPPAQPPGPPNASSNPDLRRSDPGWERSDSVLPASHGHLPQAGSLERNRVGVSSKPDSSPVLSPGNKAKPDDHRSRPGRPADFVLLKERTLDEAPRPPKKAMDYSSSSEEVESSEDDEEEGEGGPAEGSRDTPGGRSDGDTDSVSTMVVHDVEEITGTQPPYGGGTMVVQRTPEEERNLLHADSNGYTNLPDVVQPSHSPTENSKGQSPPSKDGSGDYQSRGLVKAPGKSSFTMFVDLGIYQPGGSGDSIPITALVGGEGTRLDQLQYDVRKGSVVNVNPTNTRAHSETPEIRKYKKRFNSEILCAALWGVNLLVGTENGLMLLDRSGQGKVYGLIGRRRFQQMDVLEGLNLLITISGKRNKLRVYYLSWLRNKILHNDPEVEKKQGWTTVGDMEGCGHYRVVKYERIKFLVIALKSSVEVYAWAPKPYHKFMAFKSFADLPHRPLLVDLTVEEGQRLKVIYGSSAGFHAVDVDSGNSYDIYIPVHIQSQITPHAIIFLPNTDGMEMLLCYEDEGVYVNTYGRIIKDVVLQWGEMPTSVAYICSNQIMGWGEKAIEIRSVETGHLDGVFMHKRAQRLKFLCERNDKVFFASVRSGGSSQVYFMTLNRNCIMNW
Experimental: as §1

[7] = Blood to plasma ratio; format: in vitro ADME; conditions: mouse, in mice
[8] = Drug concentration in plasma and tumor 4 h post final dose; format: in vivo, MV4-11 tumor-bearing mice; conditions: BALB/c nude (nu/nu), mouse, oral; for concentration at 4 h: 4 h post final dose
Experimental: To investigate the effect of CDDD11-8 on its targets in vivo, MV4-11 tumor-bearing mice (n = 3) were treated with the vehicle, CDDD11-8 (75 and 125 mg/kg), orally for 5 days. Four hours post final dose, tumor samples were collected and lysates prepared for western blot analysis (Figure 4C, Supplementary Figure S19). […] These were accompanied by changes in the levels of the proteins involved in cancer cell survival.
We also determined the concentration of CDDD11-8 in the plasma and tumor (Figure 4D, Supplementary Table S5). […] The tumor concentration from the 75 mg/kg dose was 2.5-times the plasma concentration. However, the plasma and tumor concentrations from 125 mg/kg were similar.

[9] = tested on: other members of the CDK family; assay: ADP Glo kinase assay, CDK selectivity; format: biochemical, human; conditions: ratio of potency
Experimental: Kinase assay. The ADP Glo^TM kinase assay (Promega, Madison, WI, USA) was used to assess the inhibition by CDDD11-8 of CDKs 1, 2, 4, 6, 7, and 9, as well as the mutant isoforms of FLT3. The assays were performed in accord with the manufacturer’s protocol (Promega) as described previously. Briefly, serial three-fold dilutions of CDDD11-8 were prepared in 100% DMSO from a 2 mM stock solution, followed by 1:40 dilution into Milli-Q water. […] Luminescence was read using an EnVision® multilabel plate reader (PerkinElmer, Beaconsfield, UK), and half-maximum inhibitory concentrations (IC50) were calculated using a non-linear regression model with a variable slope, plotting log (inhibitor concentration) vs. response using the following formula: Ar%=Bottom+Top−Bottom/1+Inhibitor Concentration/IC50^HillSlope where the relative activity Ar (%) is the signal relative to the controls, IC50 is the half maximum concentration, Hillslope is the steepness of the dose-response curve, Top and Bottom are plateaus reflecting the maximum and minimum in responses on the Y-axis (GraphPad Prism version 7, San Diego, CA, USA). Ki values were calculated from the IC50 using the Cheng−Prusoff equation [32]. […]

[10] = molecular target: FLT3-D835Y (Homo sapiens, UniProt P36888, D835Y); assay: ADP Glo kinase assay; format: biochemical; conditions: calculated from IC50 using the Cheng-Prusoff equation
Experimental: as §1

[11] = molecular target: CDK4D1 (Homo sapiens, UniProt P11802); assay: ADP Glo kinase assay; format: biochemical; conditions: calculated from IC50 using the Cheng-Prusoff equation
Experimental: as §1

[12] = molecular target: FLT3-ITD (Homo sapiens, UniProt P36888, ITD); assay: ADP Glo kinase assay; format: biochemical; conditions: calculated from IC50 using the Cheng-Prusoff equation
Experimental: as §1

[13] = molecular target: CDK6D3 (Homo sapiens, UniProt Q00534); assay: ADP Glo kinase assay; format: biochemical; conditions: calculated from IC50 using the Cheng-Prusoff equation
CDK6D3, sequence (Q00534 whole entry): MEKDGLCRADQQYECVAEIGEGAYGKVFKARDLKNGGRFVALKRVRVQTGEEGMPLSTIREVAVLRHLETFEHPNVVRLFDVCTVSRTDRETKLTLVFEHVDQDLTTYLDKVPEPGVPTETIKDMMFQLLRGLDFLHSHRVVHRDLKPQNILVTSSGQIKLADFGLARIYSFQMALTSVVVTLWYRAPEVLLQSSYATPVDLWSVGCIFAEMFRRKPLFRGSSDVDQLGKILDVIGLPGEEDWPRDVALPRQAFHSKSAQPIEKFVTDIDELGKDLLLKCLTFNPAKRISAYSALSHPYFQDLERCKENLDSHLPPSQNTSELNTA
CDK6D3, sequence (P30281 whole entry partner): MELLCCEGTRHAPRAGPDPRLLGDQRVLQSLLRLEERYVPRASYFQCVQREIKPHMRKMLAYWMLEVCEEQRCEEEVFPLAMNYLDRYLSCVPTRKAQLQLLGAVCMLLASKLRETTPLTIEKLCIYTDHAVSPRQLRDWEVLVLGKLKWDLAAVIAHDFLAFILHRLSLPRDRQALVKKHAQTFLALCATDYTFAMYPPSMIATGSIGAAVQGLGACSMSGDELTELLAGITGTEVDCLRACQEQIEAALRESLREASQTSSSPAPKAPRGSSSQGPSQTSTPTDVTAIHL
Experimental: as §1

[14] = molecular target: CDK1B (Homo sapiens, UniProt P06493); assay: ADP Glo kinase assay; format: biochemical; conditions: calculated from IC50 using the Cheng-Prusoff equation
CDK1B, sequence (P06493 whole entry): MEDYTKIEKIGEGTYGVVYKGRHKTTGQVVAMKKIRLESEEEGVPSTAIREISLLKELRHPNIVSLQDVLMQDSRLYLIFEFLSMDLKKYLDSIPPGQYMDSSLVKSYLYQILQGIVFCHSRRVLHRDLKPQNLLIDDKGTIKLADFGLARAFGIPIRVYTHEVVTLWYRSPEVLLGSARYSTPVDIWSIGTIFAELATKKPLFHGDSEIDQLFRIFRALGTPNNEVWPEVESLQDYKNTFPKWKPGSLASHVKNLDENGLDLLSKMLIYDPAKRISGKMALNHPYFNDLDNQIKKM
CDK1B, sequence (P14635 whole entry partner): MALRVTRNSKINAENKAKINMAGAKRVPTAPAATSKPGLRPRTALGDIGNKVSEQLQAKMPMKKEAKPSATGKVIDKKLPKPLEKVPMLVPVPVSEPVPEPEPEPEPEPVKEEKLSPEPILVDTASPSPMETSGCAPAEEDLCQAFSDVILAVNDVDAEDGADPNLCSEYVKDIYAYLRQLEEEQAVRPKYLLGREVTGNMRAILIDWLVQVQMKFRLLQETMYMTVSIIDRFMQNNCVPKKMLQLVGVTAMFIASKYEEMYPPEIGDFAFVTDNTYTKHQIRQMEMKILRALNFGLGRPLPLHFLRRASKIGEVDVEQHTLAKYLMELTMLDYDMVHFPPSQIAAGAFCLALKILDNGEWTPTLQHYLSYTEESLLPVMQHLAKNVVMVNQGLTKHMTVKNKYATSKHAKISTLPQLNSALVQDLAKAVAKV
Experimental: as §1

[15] = molecular target: T7, FLT3 (Homo sapiens, UniProt P36888); assay: ADP Glo kinase assay; format: biochemical; conditions: calculated from IC50 using the Cheng-Prusoff equation
T7 construct: purchased Reaction Biology Corporation (Kinase HotSpot)
Experimental: as §1

[16] = tested on: Caco-2 monolayer; assay: Caco-2 permeability; format: in vitro ADME; conditions: Papp B-A/Papp A-B
[17] = Caco-2 permeability; format: in vitro ADME; conditions: human

For `Cc1cnc(N[C@H]2CC[C@H](N)CC2)nc1-c1cnc2ccc(-c3ccccc3)cn12` [CDDD11-8], which Ki [1] is on record?
Its Ki is 28 nM.

What about the Ki [2] of the same compound?
The Ki was 9 nM.

And the Ki [3]?
The Ki was 10 nM.

And the Ki [4]?
Its Ki is 12 nM.

What about the Ki [5] of the same compound?
The Ki was 3 nM.

And the Ki [6]?
The Ki was 14 nM.

What about the blood plasma ratio [7] of the same compound?
Its blood plasma ratio is 0.71.

And the concentration at 4 h ([8]; plasma, 75 mg/kg, 75 mg/kg orally 5 days, mouse 1, read-out: Plasma concentration)?
The concentration at 4 h was 490 ng/mL.

What about the concentration at 4 h ([8]; plasma, 75 mg/kg, 75 mg/kg orally 5 days, mouse 2, read-out: Plasma concentration) of the same compound?
Its concentration at 4 h is 441 ng/mL.

And the concentration at 4 h ([8]; plasma, 75 mg/kg, 75 mg/kg orally 5 days, mouse 3, read-out: Plasma concentration)?
Its concentration at 4 h is 1090 ng/mL.

And the concentration at 4 h ([8]; plasma, 125 mg/kg, 125 mg/kg orally 5 days, mouse 1, read-out: Plasma concentration)?
The concentration at 4 h was 1440 ng/mL.

And the concentration at 4 h ([8]; plasma, 125 mg/kg, 125 mg/kg orally 5 days, mouse 2, read-out: Plasma concentration)?
Its concentration at 4 h is 2850 ng/mL.

And the concentration at 4 h ([8]; plasma, 125 mg/kg, 125 mg/kg orally 5 days, mouse 3, read-out: Plasma concentration)?
The concentration at 4 h was 1800 ng/mL.

What about the concentration at 4 h ([8]; tumor, 75 mg/kg, 75 mg/kg orally 5 days, mouse 1, read-out: Tumor concentration) of the same compound?
Its concentration at 4 h is 2140 ng/g.

And the concentration at 4 h ([8]; tumor, 75 mg/kg, 75 mg/kg orally 5 days, mouse 2, read-out: Tumor concentration)?
The concentration at 4 h was 1780 ng/g.

And the concentration at 4 h ([8]; tumor, 75 mg/kg, 75 mg/kg orally 5 days, mouse 3, read-out: Tumor concentration)?
Its concentration at 4 h is 1480 ng/g.

And the Kp at 4 h ([8]; tumor, 75 mg/kg, read-out: tumor concentration relative to plasma concentration)?
Its Kp at 4 h is 2.5.

What about the concentration at 4 h ([8]; tumor, 125 mg/kg, 125 mg/kg orally 5 days, mouse 1, read-out: Tumor concentration) of the same compound?
The concentration at 4 h was 1680 ng/g.

And the concentration at 4 h ([8]; tumor, 125 mg/kg, 125 mg/kg orally 5 days, mouse 2, read-out: Tumor concentration)?
The concentration at 4 h was 2310 ng/g.

What about the concentration at 4 h ([8]; tumor, 125 mg/kg, 125 mg/kg orally 5 days, mouse 3, read-out: Tumor concentration) of the same compound?
The concentration at 4 h was 1850 ng/g.

And the “selectivity for CDK9 over other members of the CDK family” value [9]?
The value was greater than 50 fold.

And the Ki [10]?
Its Ki is 7 nM.

And the Ki [11]?
Its Ki is greater than 1000 nM.

And the Ki [12]?
The Ki was 13 nM.

What about the Ki [13] of the same compound?
Its Ki is greater than 1000 nM.

And the Ki [14]?
The Ki was greater than 1000 nM.

What about the Ki [15] of the same compound?
Its Ki is 46 nM.

And the “Caco-2 Permeability Efflux ratio” value [16]?
Its value is 4.87.

And the efflux ratio ([17]; Caco-2, Papp B-A/Papp A-B)?
The efflux ratio was 4.9.

What about the Papp A→B ([17]; Caco-2, A-B) of the same compound?
The Papp A→B was 6.06 ± 0.49 ×10⁻⁶ cm/s.

And the Papp B→A ([17]; Caco-2, B-A)?
The Papp B→A was 29.5 ± 8.47 ×10⁻⁶ cm/s.
